Test results taken from patent publication US20230085307A1, “PYRIDAZINONE COMPOUND AND HERBICIDE” (NISSAN CHEMICAL CORPORATION, priority 2019, published 2023).

What was measured:
barnyard grass [1] = test: Test Example 3: herbicidal effect by foliage application, Wagner pot (Table 18, symbol H); assay type: in vivo, barnyard grass (Echinochloa crus-galli); conditions: 320 g/ha
Summary of the method: (§1)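 Plants were sown in alluvial soil held under 0.1–0.5 cm standing water and grown 14 days in a greenhouse at 25–30 °C. An emulsifiable formulation, water-diluted to the set dose, was then sprayed onto the foliage, and effects were scored three weeks later using previously defined criteria.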

Chinese sprangletop = test: Test Example 3: herbicidal effect by foliage application, Wagner pot (Table 18, symbol D); assay type: in vivo, chinese sprangletop (Leptochloa chinensis); conditions: 320 g/ha
Summary of the method: as §1

rice flat sedge = test: Test Example 3: herbicidal effect by foliage application, Wagner pot (Table 18, symbol E); assay type: in vivo, rice flat sedge (Cyperus iria); conditions: 320 g/ha
Summary of the method: as §1

southern crabgrass [2] = test: Test Example 4: herbicidal effect by soil treatment (Table 19, symbol F); assay type: in vivo, southern crabgrass (Digitaria ciliaris); conditions: AAH 320 g/ha
Summary of the method: (§2)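 Seeds were sown in sterilized diluvial soil and covered with about 1.5 cm of soil. An emulsion formulation diluted with water to a predetermined herbicide amount was sprayed evenly onto the soil surface. Plants grew in a greenhouse at 25° C. to 30° C., and the effect was scored three weeks after application using criteria from an earlier test.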

green foxtail [3] = test: Test Example 4: herbicidal effect by soil treatment (Table 19, symbol G); assay type: in vivo, green foxtail (Setaria viridis); conditions: AAH 320 g/ha
Summary of the method: as §2

barnyard grass [4] = test: Test Example 4: herbicidal effect by soil treatment (Table 19, symbol H); assay type: in vivo, barnyard grass (Echinochloa crus-galli); conditions: AAH 320 g/ha
Summary of the method: as §2

wild oat [5] = test: Test Example 4: herbicidal effect by soil treatment (Table 19, symbol I); assay type: in vivo, wild oat (Avena fatua); conditions: AAH 320 g/ha
Summary of the method: as §2

blackgrass [6] = test: Test Example 4: herbicidal effect by soil treatment (Table 19, symbol J); assay type: in vivo, blackgrass (Alopecurus myosuroides); conditions: AAH 320 g/ha
Summary of the method: as §2

Italian ryegrass [7] = test: Test Example 4: herbicidal effect by soil treatment (Table 19, symbol K); assay type: in vivo, Italian ryegrass (Lolium multiflorum); conditions: AAH 320 g/ha
Summary of the method: as §2

windgrass [8] = test: Test Example 4: herbicidal effect by soil treatment (Table 19, symbol L); assay type: in vivo, windgrass (Apera spica-venti); conditions: AAH 320 g/ha
Summary of the method: as §2

velvetleaf [9] = test: Test Example 4: herbicidal effect by soil treatment (Table 19, symbol M); assay type: in vivo, velvetleaf (Abutilon theophrasti); conditions: AAH 320 g/ha
Summary of the method: as §2

redroot pigweed [10] = test: Test Example 4: herbicidal effect by soil treatment (Table 19, symbol N); assay type: in vivo, redroot pigweed (Amaranthus retroflexus); conditions: AAH 320 g/ha
Summary of the method: as §2

lambsquarters [11] = test: Test Example 4: herbicidal effect by soil treatment (Table 19, symbol O); assay type: in vivo, lambsquarters (Chenopodium album); conditions: AAH 320 g/ha
Summary of the method: as §2

chickweed [12] = test: Test Example 4: herbicidal effect by soil treatment (Table 19, symbol P); assay type: in vivo, common chickweed (Stellaria media); conditions: AAH 320 g/ha
Summary of the method: as §2

false cleavers = test: Test Example 4: herbicidal effect by soil treatment (Table 19, symbol Q); assay type: in vivo, false cleavers (Galium spurium); conditions: AAH 320 g/ha
Summary of the method: as §2

persian speedwell [13] = test: Test Example 4: herbicidal effect by soil treatment (Table 19, symbol R); assay type: in vivo, Persian speedwell (Veronica persica); conditions: AAH 320 g/ha
Summary of the method: as §2

southern crabgrass [14] = test: Test Example 5: herbicidal effect by foliage application, plastic box (Table 20, symbol F); assay type: in vivo, southern crabgrass (Digitaria ciliaris); conditions: foliage application, AAH 320 g/ha, three weeks after application
Summary of the method: (§3)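 Plants sown in sterilized diluvial soil and grown 14 days in a greenhouse at 25° C to 30° C, then sprayed on the foliage with the compound's emulsion diluted in water to a predetermined herbicide amount. Injury to weeds and crops scored three weeks after application on a visual rating scale.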

green foxtail [15] = test: Test Example 5: herbicidal effect by foliage application, plastic box (Table 20, symbol G); assay type: in vivo, green foxtail (Setaria viridis); conditions: foliage application, AAH 320 g/ha, three weeks after application
Summary of the method: as §3

barnyard grass [16] = test: Test Example 5: herbicidal effect by foliage application, plastic box (Table 20, symbol H); assay type: in vivo, barnyard grass (Echinochloa crus-galli); conditions: foliage application, AAH 320 g/ha, three weeks after application
Summary of the method: as §3

wild oat [17] = test: Test Example 5: herbicidal effect by foliage application, plastic box (Table 20, symbol I); assay type: in vivo, wild oat (Avena fatua); conditions: foliage application, AAH 320 g/ha, three weeks after application
Summary of the method: as §3

blackgrass [18] = test: Test Example 5: herbicidal effect by foliage application, plastic box (Table 20, symbol J); assay type: in vivo, blackgrass (Alopecurus myosuroides); conditions: foliage application, AAH 320 g/ha, three weeks after application
Summary of the method: as §3

Italian ryegrass [19] = test: Test Example 5: herbicidal effect by foliage application, plastic box (Table 20, symbol K); assay type: in vivo, Italian ryegrass (Lolium multiflorum); conditions: foliage application, AAH 320 g/ha, three weeks after application
Summary of the method: as §3

windgrass [20] = test: Test Example 5: herbicidal effect by foliage application, plastic box (Table 20, symbol L); assay type: in vivo, windgrass (Apera spica-venti); conditions: foliage application, AAH 320 g/ha, three weeks after application
Summary of the method: as §3

velvetleaf [21] = test: Test Example 5: herbicidal effect by foliage application, plastic box (Table 20, symbol M); assay type: in vivo, velvetleaf (Abutilon theophrasti); conditions: foliage application, AAH 320 g/ha, three weeks after application
Summary of the method: as §3

redroot pigweed [22] = test: Test Example 5: herbicidal effect by foliage application, plastic box (Table 20, symbol N); assay type: in vivo, redroot pigweed (Amaranthus retroflexus); conditions: foliage application, AAH 320 g/ha, three weeks after application
Summary of the method: as §3

lambsquarters [23] = test: Test Example 5: herbicidal effect by foliage application, plastic box (Table 20, symbol O); assay type: in vivo, lambsquarters (Chenopodium album); conditions: foliage application, AAH 320 g/ha, three weeks after application
Summary of the method: as §3

chickweed [24] = test: Test Example 5: herbicidal effect by foliage application, plastic box (Table 20, symbol P); assay type: in vivo, common chickweed (Stellaria media); conditions: foliage application, AAH 320 g/ha, three weeks after application
Summary of the method: as §3

persian speedwell [25] = test: Test Example 5: herbicidal effect by foliage application, plastic box (Table 20, symbol R); assay type: in vivo, Persian speedwell (Veronica persica); conditions: foliage application, AAH 320 g/ha, three weeks after application
Summary of the method: as §3

## CCCC(=O)Oc1c(OC)nn(C)c(=O)c1-c1c(-c2ccc([N+](=O)[O-])cc2)sc2ccccc12 [1-169]
Barnyard grass [1]
  herbicidal effect on H (barnyard grass), rating 0-5: 1 (Herbicidal rate of 5% or more and less than 20%)
Chinese sprangletop
  herbicidal effect on D (Chinese sprangletop), rating 0-5: 0 (Herbicidal rate of 5% or less (almost no effect))
Rice flat sedge
  herbicidal effect on E (rice flat sedge), rating 0-5: 2 (Herbicidal rate of 20% or more and less than 40%)
Southern crabgrass [2]
  F: southern crabgrass, herbicidal effect rating: 0 (Herbicidal rate of 5% or less (almost no effect))
Green foxtail [3]
  G: green foxtail, herbicidal effect rating: 0 (Herbicidal rate of 5% or less (almost no effect))
Barnyard grass [4]
  H: barnyard grass, herbicidal effect rating: 0 (Herbicidal rate of 5% or less (almost no effect))
Wild oat [5]
  I: wild oat, herbicidal effect rating: 0 (Herbicidal rate of 5% or less (almost no effect))
Blackgrass [6]
  J: blackgrass, herbicidal effect rating: 0 (Herbicidal rate of 5% or less (almost no effect))
Italian ryegrass [7]
  K: Italian ryegrass, herbicidal effect rating: 0 (Herbicidal rate of 5% or less (almost no effect))
Windgrass [8]
  L: windgrass, herbicidal effect rating: 0 (Herbicidal rate of 5% or less (almost no effect))
Velvetleaf [9]
  M: velvetleaf, herbicidal effect rating: 0 (Herbicidal rate of 5% or less (almost no effect))
Redroot pigweed [10]
  N: redroot pigweed, herbicidal effect rating: 0 (Herbicidal rate of 5% or less (almost no effect))
Lambsquarters [11]
  O: lambsquarters, herbicidal effect rating: 0 (Herbicidal rate of 5% or less (almost no effect))
Chickweed [12]
  P: chickweed, herbicidal effect rating: 1 (Herbicidal rate of 5% or more and less than 20%)
False cleavers
  Q: false cleavers, herbicidal effect rating: 0 (Herbicidal rate of 5% or less (almost no effect))
Persian speedwell [13]
  R: persian speedwell, herbicidal effect rating: 3 (Herbicidal rate of 40% or more and less than 70%)
Southern crabgrass [14]
  F: southern crabgrass, herbicidal effect: 0 (Herbicidal rate of 5% or less (almost no effect))
Green foxtail [15]
  G: green foxtail, herbicidal effect: 0 (Herbicidal rate of 5% or less (almost no effect))
Barnyard grass [16]
  H: barnyard grass, herbicidal effect: 0 (Herbicidal rate of 5% or less (almost no effect))
Wild oat [17]
  I: wild oat, herbicidal effect: 0 (Herbicidal rate of 5% or less (almost no effect))
Blackgrass [18]
  J: blackgrass, herbicidal effect: 0 (Herbicidal rate of 5% or less (almost no effect))
Italian ryegrass [19]
  K: Italian ryegrass, herbicidal effect: 0 (Herbicidal rate of 5% or less (almost no effect))
Windgrass [20]
  L: windgrass, herbicidal effect: 0 (Herbicidal rate of 5% or less (almost no effect))
Velvetleaf [21]
  M: velvetleaf, herbicidal effect: 0 (Herbicidal rate of 5% or less (almost no effect))
Redroot pigweed [22]
  N: redroot pigweed, herbicidal effect: 4 (Herbicidal rate of 70% or more and less than 90%)
Lambsquarters [23]
  O: lambsquarters, herbicidal effect: 4 (Herbicidal rate of 70% or more and less than 90%)
Chickweed [24]
  P: chickweed, herbicidal effect: 4 (Herbicidal rate of 70% or more and less than 90%)
Persian speedwell [25]
  R: persian speedwell, herbicidal effect: 4 (Herbicidal rate of 70% or more and less than 90%)
